One block for each molecule: values may come before it.
Experiments:
[1] = test system: Human acute myeloid leukemia cell line KG1; assay: FGFR-dependent tumor cell proliferation inhibition activity test (CCK-8, 72 h); format: cell-based
Source text: Human acute myeloid leukemia cell line KG1 (FGFR1 fusion protein expressed in the cytoplasm, FGFR1-dependent tumor cell line) (ATCC, Cat. No. CCL-246), cell culture medium RPMI-1640 (Corning Cellgro, No. 10-040-CVR), fetal bovine serum (Life
Technologies, Cat. No. 10099-141) was purchased from the company; CCK-8 cell counting kit (DOJINDO, Cat. No. FK808). Adjustable wavelength microplate reader (Molecular Device, Cat. No. SpectraMax 190).
The inhibitory effect of the compound on KG1 proliferation was detected by CCK-8 Cell Counting Kit (Dojindo): Logarithmic growth phase cells were seeded in 96-well culture plate in appropriate density, 90 ul for each well. After cultured overnight, different concentrations of drugs were added and incubated for 72 h, while solvent control well was set (negative control). After the cells were treated by the compound for 72 h, 10 μL of CCK-8 reagent was added to each well. After incubated for 2-4 hours in a 37 □ incubator, the plate was read with SpectraMax 190 microplate reader at wavelength 450 nm.
The inhibition rate of compounds against cell proliferation is calculated by the following formula:
Inhibition rate (%)=(OD negative control well-OD administration well)/OD negative control well×100%.
(§1) The IC50 values were obtained by four-parameter regression analysis using the software supplied with the microplate reader.

[2] = test system: human lung cancer NCI-H1581 transplanted tumor; assay: Tumor growth inhibition in tumor-bearing mice (subcutaneously transplanted tumor); format: in vivo, BALB/cA nude mice; conditions: for T/C (%): 13th day; for TV (mm^3, mean ± SD) d0: d0, before dosing
Procedure: Before using, the compound was diluted with 5% Tween80 in normal saline to the desired concentration (light yellow suspension), and was prepared once a week.
Before using, the compound was diluted with 1% Tween 80 in normal saline to the desired concentration (white suspension), and was prepared once a week.
The cell strain was inoculated in the right axilla of the nude mice, and the amount of cells inoculated was 5×10^6/animal to form transplanted tumor, and passaged in vivo in nude mice by 1 generation before use.
The tumor tissue in the vigorous growth period was cut into 1.5 mm^3, and inoculated subcutaneously in the right axilla of the nude mice under aseptic conditions. The diameter of the subcutaneously transplanted in a nude mice was measured with a vernier caliper, and the animals were randomly grouped when the average volume of tumors was about 220 mm^3. […] The solvent control group was given an equal amount of normal saline. The diameter of the transplanted tumor was measured twice a week during the entire experiment, and the body weights of the mice were weighed. The calculation formula of tumor volume (TV) is: TV=1/2×a×b2, where a and b respectively represent the length and width of the tumor. The relative tumor volume (RTV) was calculated based on the measured results and the formula was: RTV=Vt/V0. Where V0 is the tumor volume measured before grouping and dosing (d0), and Vt is the tumor volume at each measurement.

FGFR1 = target: T1, FGFR1 (Homo sapiens, UniProt P11362); assay: FGFR kinase inhibitory activity experiment (ELISA, Poly(Glu,Tyr)4:1 substrate); format: biochemical; conditions: kinase recombinant protein FGFR1, ATP 5 μM
T1 construct: The reaction was initiated by addition of FGFR kinase domain recombinant protein diluted with 49 μL of reaction buffer; purchased Millipore 14-482
Procedure: Precision electronic balance (Sartotius, Cat. No. BP210D), adjustable wavelength microplate reader (Molecular Device, Cat. No. SpectraMax 190).
After the liquid was removed from the wells, the plate was washed for three times with 200 μL/well of T-PBS (PBS containing 0.1% Tween-20) for 5 minutes each time. The enzyme plate was dried at 37° C. in a dryer for 1-2 hours.
50 μL ATP solution diluted with reaction buffer (50 mM HEPES pH 7.4, 50 mM MgCl2, 0.5 mM MnCl2, 0.2 mM Na3VO4, 1 mM DTT) was added into each well at a 5 μM final concentration. The compounds were diluted to appropriate concentration in DMSO, 1 μL/well or containing the corresponding concentrations of DMSO (negative control wells). The reaction was initiated by addition of FGFR kinase domain recombinant protein diluted with 49 μL of reaction buffer. Two control wells without enzyme were set in each experiment. The plate was placed on a shaker (100 rpm) at 37° C. for 1 hour. The plate was washed with T-PBS for three times. 100 μL/well of primary antibody PY99 dilution was added, and incubated at 37° C. for 0.5 hour on a shaker (100 rpm). The plate was washed with T-PBS for three times. 100 μL/well of horseradish peroxidase-labeled secondary anti-goat anti-mouse IgG dilution was added and incubated at 37° C. for 0.5 hour on a shaker (100 rpm). The plate was washed with T-PBS for three times. 100 μL/well of 2 mg/mL OPD coloration solution (diluted with 0.1 M citric acid-sodium citrate buffer containing 0.03% H2O2 (pH=5.4)) was added, and incubated in darkness for 1-10 minutes at 25° C. The reaction was quenched with 50 μL/well 2M H2SO4, and read at 490 nm using a tunable microplate microplate reader SPECTRA MAX 190.
The inhibition ratio of the sample was determined by the following formula: […]
as §1

[3] = AZD4547 12.5 mg/kg po qd/13, d13

T1 sequence (P11362 478-767 limits assumed): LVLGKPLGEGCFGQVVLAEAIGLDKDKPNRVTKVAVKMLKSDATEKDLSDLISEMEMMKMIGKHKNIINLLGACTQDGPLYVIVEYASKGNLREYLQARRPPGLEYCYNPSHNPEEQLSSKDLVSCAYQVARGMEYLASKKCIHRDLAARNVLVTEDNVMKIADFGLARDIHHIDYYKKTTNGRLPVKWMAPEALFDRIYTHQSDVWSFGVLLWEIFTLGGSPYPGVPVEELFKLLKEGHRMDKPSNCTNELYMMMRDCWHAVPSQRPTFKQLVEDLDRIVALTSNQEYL

- IC50 ([1]; Homo sapiens, KG-1, KG1 cells): ≤ 0.1 µM
Molecule: Cc1c(-c2c3c(N)n[nH]c(=O)c3nn2-c2ccc(NC(=O)/C=C/CN(C)C)cc2)oc2ccc(Cl)cc12 [Compound A26, (2E)-N-{4-[4-amino-3-(5-chloro-3-methyl-1-benzofuran-2-yl)-7-carbonyl-6,7-dihydro-2H-pyrazolo[3,4-d]pyridazin-2-yl]phenyl}-4-(dimethylamino)but-2-enamide]
- growth of subcutaneously transplanted tumors (in words) ([2]; 50 mg/kg and 10 mg/kg intraperitoneally once a day for 13 days): significantly inhibited
- T/C (%) ([2]; A26 10 mg/kg ip qd/13): 19.88%
- body weight (g) d0 ([2]; A26 10 mg/kg ip qd/13): 18.4 g
- TV (mm^3, mean ± SD) d0 ([2]; A26 10 mg/kg ip qd/13): 161 ± 71 mm^3
- RTV (mean ± SD) ([2]; A26 10 mg/kg ip qd/13, d13): 4.17 ± 2.49
- TV (mm^3, mean ± SD) d13 ([2]; A26 10 mg/kg ip qd/13, d13): 621 ± 289 mm^3
- body weight (g) d13 ([2]; A26 10 mg/kg ip qd/13, d13): 21.3 g
- T/C (%) ([2]; A26 50 mg/kg ip qd/13): 2.20%
- body weight (g) d0 ([2]; A26 50 mg/kg ip qd/13): 18.2 g
- TV (mm^3, mean ± SD) d0 ([2]; A26 50 mg/kg ip qd/13): 159 ± 69 mm^3
- RTV (mean ± SD) ([2]; A26 50 mg/kg ip qd/13, d13): 0.46 ± 0.19
- TV (mm^3, mean ± SD) d13 ([2]; A26 50 mg/kg ip qd/13, d13): 66 ± 21 mm^3

- IC50 ([1]; Homo sapiens, KG-1, KG1 cells): ≤ 0.1 µM
- IC50 (FGFR1): < 0.1 µM
Molecule: C=CC(=O)N1CCCC(n2nc3c(=O)[nH]nc(N)c3c2-c2oc3ccc(Cl)cc3c2C)C1 (stereo not shown) [Compound A87, 2-(1-acryloylpiperidin-3-yl)-4-amino-3-(5-chloro-3-methylbenzofuran-2-yl)-2,6-dihydro-7H-pyrazolo[3,4-d]pyridazine-7-one]

- IC50 ([1]; KG1 cells): ≤ 0.1 µM
- IC50 (FGFR1): < 0.1 µM
Molecule: C=CC(=O)NC1CCC(n2nc3c(=O)[nH]nc(N)c3c2-c2oc3ccc(C)cc3c2C)CC1 (stereo not shown) [Compound A88, N-(4-(4-amino-3-(3,5-dimethylbenzo-furan-2-yl)-7-carbonyl-6,7-dihydro-2H-pyrazolo[3,4-d]pyridazin-2-yl)cyclohexyl)acryloylamide]

Molecule: AZD4547 [reference compound]
- growth of subcutaneously transplanted tumors (in words) ([2]; 12.5 mg/kg orally once a day for 13 days): partially inhibited
- T/C (%) ([2]; AZD4547 12.5 mg/kg po qd/13): 16.39%
- TV (mm^3, mean ± SD) d0 ([2]; AZD4547 12.5 mg/kg po qd/13): 153 ± 50 mm^3
- RTV (mean ± SD) [2, 3]: 3.43 ± 2.61
- TV (mm^3, mean ± SD) d13 [2, 3]: 517 ± 392 mm^3

Source: patent US20190135818A1 (SHANGHAI INSTITUTE OF MATERIA MEDICA, CHINESE ACADEMY OF …, priority 2016, published 2019)
